The record followed here is US20130029942A1, “COMPOUNDS AND THERAPEUTICAL USES THEREOF” (Myrexis, Inc., priority 2003, published 2013).

Read-outs that look alike come from different tables or passages of the source.

The test system of this assay is T-47D cells. Nature of the assay: Caspase cascade activation / induction of apoptosis in T-47D cells (fluorogenic N-(Ac-DEVD)-N'-ethoxycarbonyl-R110 substrate). The format is cell-based, human. The settings on record: for EC50: Homo sapiens, T47D.
Setting [1] is: T-47D, 48 hr, benzohydrazide table, read-out: T-47D (48 hr) EC50.
[2] abbreviates: T-47D, 48 hr, benzohydrazide table.
Where [3] appears, read: T-47D, 24 hr, read-out: T-47D (24 hr) EC50.
The mark [4] stands for this setting: T-47D, 48 hr, read-out: T-47D (48 hr) EC50.

The term EC50 denotes the concentration at which the effect is half-maximal. Turning to `CSc1nc(N(C)NC(=O)c2ccc(Cl)cc2)c2ccccc2n1`, the concentration giving a half-maximal response (EC50) under setting [1] turned out to be 138 nM. Moreover, under setting [2], the “T-47D (48 hr) Ratio” value is reported as 14.4.

In the case of `CSc1nc(N(C)NC(=O)c2cccs2)c2ccccc2n1`, the EC50 under setting [1] was determined as 737 nM. Further, the “T-47D (48 hr) Ratio” value under setting [2] is on record as 10.1.

Consider `CSc1nc(N(C)NC(=O)c2ccccc2)c2ccccc2n1`, for which the EC50 under setting [1] turned out to be 149 nM. In addition, the “T-47D (48 hr) Ratio” value under setting [2] turned out to be 14.7.

On to `CN(NC(=O)c1ccccc1F)c1nc(C(F)(F)F)nc2ccccc12`, for which the EC50 under setting [1] worked out at 184 nM. Further, the “T-47D (48 hr) Ratio” value under setting [2] worked out at 13.7.

Consider `CSc1nc(N(C)NC(=O)c2ccc(F)cc2)c2ccccc2n1`, for which the EC50 under setting [1] came to 290 nM. The “T-47D (48 hr) Ratio” value under setting [2] worked out at 13.8.

Take `CSc1nc(N(C)NC(=O)c2cccc(C)c2)c2ccccc2n1`: under setting [1], the half-maximal effective concentration (EC50) was found to be 46 nM. Further, under setting [2], the “T-47D (48 hr) Ratio” value stood at 12.7.

Regarding `COc1ccc(C(=O)NN(C)c2nc(C(F)(F)F)nc3ccccc23)cc1`, the concentration for a half-maximal effect (EC50) under setting [1] was found to be 39 nM. For the same compound, the “T-47D (48 hr) Ratio” value under setting [2] is 13.1.

Take `CN(c1ccc(Cl)cc1)c1nc(Cl)nc2ccccc12` [Example 3, (2-Chloro-quinazolin-4-yl)-(4-chloro-phenyl)-methyl-amine]: under setting [3], the EC50 worked out at 79 nM.

`CN(c1ccc([N+](=O)[O-])cc1)c1nc(Cl)nc2ccccc12` [Example 4, (2-Chloro-quinazolin-4-yl)-(4-nitro-phenyl)-methyl-amine]: the concentration giving a half-maximal response (EC50) under setting [3] was 872 nM.

Turning to `CN(c1ccc(OC(F)(F)F)cc1)c1nc(Cl)nc2ccccc12` [Example 5, (2-Chloro-quinazolin-4-yl)-(4-trifluoromethoxy-phenyl)-methyl-amine], the EC50 under setting [3] was 24 nM.

For `Cc1ccc(Nc2nc(Cl)nc3ccccc23)cc1` [Example 8, (2-Chloro-quinazolin-4-yl)-(4-methyl-phenyl)-amine], under setting [3], the EC50 is > 10000 nM.

As to `COc1ccc2c(ccn2-c2nc(Cl)nc3ccccc23)c1` [Example 9, 2-Chloro-4-(5-methoxyindol-1-yl)quinazoline], the EC50 under setting [4] was > 10000 nM.

In the case of `COc1ccc(N(C)c2nc(NO)nc3ccccc23)cc1` [Example 10, N^2-Hydroxyl-N^4-(4-methoxy-phenyl)-N^4-methyl-quinazoline-2,4-diamine], under setting [4], the EC50 was 48 nM.

As to `COc1ccc(N(C)c2nc(NCCO)nc3ccccc23)cc1` [Example 11, N^2-(2-Hydroxylethyl)-N^4-(4-methoxy-phenyl)-N^4-methyl-quinazoline-2,4-diamine], the EC50 reads like this: under setting [3], 8 nM; under setting [4], 10 nM.

Regarding `COc1ccc(N(C)c2nc(N)nc3ccccc23)cc1` [Example 12, N^4-(4-Methoxy-phenyl)-methyl-quinazoline-2,4-diamine], the EC50 under setting [3] was determined as 8 nM; the EC50 under setting [4] was 9 nM; the half-maximal effective concentration (EC50) (Table III, time not given, repeats 24 hr or 48 hr T-47D values of Table I, read-out: Caspase activation (EC50 nM)) was found to be 8 nM.

As to `COc1ccc(N(C)c2nc(NCCN3CCOCC3)nc3ccccc23)cc1` [Example 14, N^4-(4-Methoxy-phenyl)-N^4-methyl-N^2-(2-morpholin-4-yl-ethyl)-quinazoline-2,4-diamine], the 50% effective concentration (EC50) under setting [3] was 1340 nM and the concentration giving a half-maximal response (EC50) under setting [4] stood at 1330 nM.

Turning to `COc1ccc(N(C)c2nc(N3CCOCC3)nc3ccccc23)cc1` [Example 15, (4-Methoxy-phenyl)-methyl-(2-morpholin-4-yl-quinazolin-4-yl)-amine], the EC50 is 56 nM under setting [3] and 89 nM under setting [4].

For `CC(C)=CCC/C(C)=C/CNc1nc(N(C)c2ccc(C)cc2)c2ccccc2n1` [Example 16, N^2-(3,7-Dimethyl-octa-2,6-dienyl)-N^4-(4-methyl-phenyl)-N^4-methyl-quinazoline-2,4-diamine], the EC50 under setting [3] was 296 nM.

As for `COc1ccc(N(C)c2nc(N)nc3[nH]cnc23)cc1` [Example 17, N^6-(4-Methoxy-phenyl)-N^6-methyl-9H-purine-2,6-diamine], the EC50 under setting [3] was found to be 7940 nM.

On to `CN(c1ccccc1)c1nc(N(C)c2ccccc2)c2ccccc2n1` [Example 18, N^2,N^4-Dimethyl-N^2,N^4-diphenyl-quinazoline-2,4-diamine], for which the EC50 is, setting by setting: under setting [3], > 10000 nM; under setting [4], > 10000 nM.

Take `CN(c1ccc(Cl)cc1)c1nc(N(C)c2ccc(Cl)cc2)c2ccccc2n1` [Example 19, N^2,N^4-Bis(4-chloro-phenyl)-N^2,N^4-dimethyl-quinazoline-2,4-diamine]: the EC50 by setting is: under setting [3], > 10000 nM; under setting [4], > 10000 nM.

With `COc1ccc(Nc2nc(Cl)nc3cc(OC)c(OC)cc23)cc1` [Example 21, (2-Chloro-6,7-dimethoxyquinazolin-4-yl)-(4-methoxy-phenyl)-amine], the EC50 was > 10000 nM under setting [3] and > 10000 nM under setting [4].

`COc1cc2nc(Cl)nc(N(C)c3ccc(C)cc3)c2cc1OC` [Example 22, (2-Chloro-6,7-dimethoxyquinazolin-4-yl)-(4-methyl-phenyl)-methyl-amine]: the EC50 by setting is: under setting [3], > 10000 nM; under setting [4], > 10000 nM.

As for `COc1ccc(N(C)c2nc(NCCN3CCOCC3)nc3cc(OC)c(OC)cc23)cc1` [Example 23, 6,7-Dimethoxy-N^4-(4-methoxy-phenyl)-N^4-methyl-N^2-(2-morpholin-4-yl-ethyl)-quinazoline-2,4-diamine], the EC50 was > 10000 nM under setting [3] and > 10000 nM under setting [4].

Turning to `COc1ccc(N(C)c2nc(NC/C=C(\C)CCC=C(C)C)nc3cc(OC)c(OC)cc23)cc1` [Example 24, 6,7-Dimethoxy-N^2-(3,7-dimethyl-octa-2,6-dienyl)-N^4-(4-methoxy-phenyl)-N^4-methyl-quinazoline-2,4-diamine], the 50% effective concentration (EC50) reads like this: under setting [3], > 10000 nM; under setting [4], 9460 nM.

`COc1ccc(CN(C)c2nc(Cl)nc3ccccc23)cc1` [Example 26, (2-Chloro-quinazolin-4-yl)-(4-methoxy-benzyl)-methyl-amine]: under setting [4], the EC50 came out at 178 nM.

Consider `Clc1nc(Nc2ccncc2)c2ccccc2n1` [Example 27, (2-Chloro-quinazolin-4-yl)-pyridin-4-yl-amine], for which, under setting [4], the EC50 is > 10000 nM.

In the case of `COc1ccc(Nc2nc(Cl)nc3ccccc23)cn1` [Example 28, (2-Chloro-quinazolin-4-yl)-(6-methoxy-pyridin-3-yl)-amine], the EC50 by setting is: under setting [3], > 10000 nM; under setting [4], > 10000 nM.

Regarding `COc1cccc(Nc2nc(Cl)nc3ccccc23)c1OC` [Example 29, (2-Chloro-quinazolin-4-yl)-(2,3-dimethoxy-phenyl)-amine], the EC50 under setting [4] is > 10000 nM.

Turning to `COc1ccc(Nc2nc(Cl)nc3ccccc23)c(OC)c1` [Example 30, (2-Chloro-quinazolin-4-yl)-(2,4-dimethoxy-phenyl)-amine], the concentration giving a half-maximal response (EC50) under setting [4] was > 10000 nM.

For the compound `COc1cccc(Nc2nc(Cl)nc3ccccc23)c1` [Example 32, (2-Chloro-quinazolin-4-yl)-(3-methoxy-phenyl)-amine], the half-maximal effective concentration (EC50) under setting [4] was > 10000 nM.

Consider `COc1ccccc1Nc1nc(Cl)nc2ccccc12` [Example 33, (2-Chloro-quinazolin-4-yl)-(2-methoxy-phenyl)-amine], for which the EC50 under setting [4] was > 10000 nM.

For the compound `COc1ccc(N(c2nc(Cl)nc3ccccc23)C(C)C)cc1` [Example 37, (2-Chloro-quinazolin-4-yl)-isopropyl-(4-methoxy-phenyl)-amine], under setting [3], the EC50 turned out to be 2690 nM.

For `COc1ccc(N(c2nc(Cl)nc3ccccc23)C2CCCCC2)cc1` [Example 38, (2-Chloro-quinazolin-4-yl)-cyclohexyl-(4-methoxy-phenyl)-amine], the 50% effective concentration (EC50) under setting [3] turned out to be 2930 nM.

Take `COc1cccc(N(C)c2nc(Cl)nc3ccccc23)c1OC` [Example 39, (2-Chloro-quinazolin-4-yl)-(2,3-dimethoxy-phenyl)-methyl-amine]: the EC50 under setting [3] stood at 693 nM.

For `CCN(c1ccc(OC)cc1)c1nc(Cl)nc2ccccc12` [Example 40, (2-Chloro-quinazolin-4-yl)-ethyl-(4-methoxy-phenyl)-amine], the EC50 under setting [4] worked out at 47 nM.

For the compound `COc1ccc(N(c2nc(Cl)nc3ccccc23)C2CCCC2)cc1` [Example 45, (2-Chloro-quinazolin-4-yl)-cyclopentyl-(4-methoxy-phenyl)-amine], the EC50 under setting [4] is > 10000 nM.

`COc1ccc(N(C)c2nc(NCCc3c[nH]cn3)nc3ccccc23)cc1` [Example 46, N^2-[2-(1H-Imidazol-4-yl)-ethyl]-N^4-(4-methoxy-phenyl)-N^4-methyl-quinazoline-2,4-diamine]: the EC50 under setting [3] was 2180 nM and the EC50 under setting [4] stood at 2270 nM.

For the compound `COc1ccc(N(C)c2nc(NCCCN(C)C)nc3ccccc23)cc1` [Example 47, N^2-(3-Dimethylamino-propyl)-N^4-(4-methoxy-phenyl)-N^4-methyl-quinazoline-2,4-diamine], the EC50 under setting [4] amounted to 187 nM.

Consider `COc1ccc(N(C)c2nc(NCCO)nc3ccccc23)cn1` [Example 48, N^2-(2-Hydroxyethyl)-N^4-(6-methoxypyridin-3-yl)-N^4-methyl-quinazoline-2,4-diamine], for which the EC50 under setting [4] stood at 137 nM.

For `COc1ccc(N(C)c2nc(N)nc3ccccc23)cn1` [Example 49, N^4-(6-methoxypyridin-3-yl)-N^4-methyl-quinazoline-2,4-diamine], the EC50 by setting is: under setting [3], 29 nM; under setting [4], 22 nM.

For `COc1ccc(N(C)c2nc(NCCO)nc3cc(OC)c(OC)cc23)cc1` [Example 50, N^2-(2-Hydroxyethyl)-N^4-(4-methoxy-phenyl)-N^4-methyl-6,7-dimethoxyquinazoline-2,4-diamine], the EC50 under setting [4] is > 10000 nM.

Turning to `COc1ccc(N(C)c2nc(Cl)nc3[nH]cnc23)cc1` [Example 51, (2-Chloro-9H-purin-6-yl)-(4-methoxy-phenyl)-methyl-amine], under setting [4], the concentration for a half-maximal effect (EC50) is > 10000 nM.

Take `COC(=O)c1ccc(N(C)c2nc(Cl)nc3ccccc23)cc1` [Example 52, (2-Chloro-quinazolin-4-yl)-(4-methylcarboxyphenyl)-methyl-amine]: under setting [4], the EC50 is 6 nM.

As to `CN(c1ccc(O)cc1)c1nc(Cl)nc2ccccc12` [Example 54, (2-Chloro-quinazolin-4-yl)-(4-hydroxyphenyl)-methylamine], under setting [4], the concentration giving a half-maximal response (EC50) came to 46 nM.
